Literature values, collected in patent publication US20110177042A1, “Method for Dedifferentiating Melanocytes” (priority 2008, published 2011).

Test system: Notch1
Conditions: identified in cited literature (Xiao 2009; Adler 2008; Stockhausen 2005)

Row | Structure (SMILES) | Notch1 activation
1 | CCCC(CCC)C(=O)O [valproic acid] | strong Notch1 activators
2 | O=C(CCCCCCC(=O)NO)NO [suberoyl bis-hydroxamic acid] | strong Notch1 activators
